According to paper PMC11744668, “2-Cyanopyrimidine-Containing Molecules for N-Terminal Selective Cyclization of Phage-Displayed Peptides” (ACS Chemical Biology, 2025):
“Also recorded” adds a separate entry of the source. Starred links: 1 amine or outer side, 2 acyl side, 3 side chain; linkers in the order of their positions; H or OH if unused. Positions of bridges follow the written chain, without caps; N, C: chain ends. Non-standard residues stand in square brackets, D forms with d. Residues, ends and D or L forms follow the SMILES beside them. No end group written: not given here. X1 = O=C([C@@H]1CSC(c2ncc(N[*:1])cn2)=N1)[*:2]; Abu = CC[C@H](N)C(=O)O

Experiments:
[1] = target: T1, ZNRF3 extracellular domain (ZNRF3-ECD) (Homo sapiens, UniProt Q9ULT6); test: Biolayer interferometry (BLI) binding to immobilized biotinylated ZNRF3-ECD; settings: 10 mM HEPES, 150 mM NaCl, 0.01% Tween 20, pH 7.5, 0.8% DMF; for Kd: streptavidin biosensors, 1:1 binding model, mean ± s.d., n = 3
T1 construct: The ZNRF3 ECD was expressed and characterized exactly as previously described; SUMO (N, cleaved yes); made in house; host or cells: E. coli BL21, co-expressing BirA
T1 sequence (Q9ULT6 56-219 limits assumed): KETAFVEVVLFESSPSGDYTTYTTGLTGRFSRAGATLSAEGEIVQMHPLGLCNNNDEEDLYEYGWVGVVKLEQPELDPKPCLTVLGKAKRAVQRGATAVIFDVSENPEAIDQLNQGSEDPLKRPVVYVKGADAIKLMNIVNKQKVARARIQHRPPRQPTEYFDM
Protocol: The ZNRF3 ECD was expressed and characterized exactly as previously described.[38] Plasmid pET28a-SUMO-ZNRF3-Avi was cotransformed into E. coli (BL21) along with a plasmid expressing BirA. The cells were then inoculated into 2× YT containing 50 μg/mL kanamycin and 34 μg/mL chloramphenicol and grown at 37 °C until OD = 0.5. Expression was then induced by the addition of 1 mM IPTG and 50 μM biotin, and then the protein was expressed for 18 h at 16 °C. The cells were then pelleted (3750g, 15 min) and then resuspended in buffer A (50 mM Tris-HCl, 10% glycerol, 150 mM NaCl, and 25 mM imidazole, pH 7.5, 20 mL/liter of expression). The cells were then lysed by sonication (1 s on, 1 s off, 5 min, 60% A, repeated once), and the lysate was clarified by centrifugation (25,000g, 20 min). The supernatant was then incubated with a Ni-NTA column for 45 min at 4 °C. The column was then washed with 5 CV of buffer A before being eluted using 2 CV of buffer B (buffer A + 240 mM imidazole). The elution was then concentrated using an Amicon centrifugal filter before being desalted into buffer A on a HiPrep 26/10 column. The SUMO tag was then cleaved by the addition of 30 μg/mL SUMO protease and incubation for 48 h at 4 °C. The protein was then loaded onto a second Ni-NTA column for 45 min at 4 °C, and the flowthrough was collected and concentrated to 1 mL by centrifugation. Pure protein was then isolated using size exclusion chromatography (HiLoad 16/600, Superdex 75 pg) in buffer C (50 mM Tris-HCl, pH 7.5, 10% (v/v) glycerol, 150 mM NaCl, and 0.5 mM EDTA). Pure protein was stored in storage buffer (50 mM Tris-HCl, pH 7.5, 50% (v/v) glycerol, and 150 mM NaCl) at −80 °C before being used for assays.
Biolayer interferometry (BLI) experiments were performed using streptavidin-coated biosensors (Sartorius Bio) on an Octet R8 biolayer interferometer (Sartorius Bio). All experiments were performed in assay buffer (10 mM HEPES, 150 mM NaCl, and 0.01% Tween 20, pH 7.5). Biotinylated ZNRF3 (28 μg/mL in assay buffer) was loaded onto the sensor to 4 nm of loading over 10 min, and then the sensors were quenched for one min with a 1% BSA solution in assay buffer. Peptides were serially diluted in assay buffer containing 0.8% DMF, and the association and dissociation to ZNRF3 were measured over 3 and 5 min, respectively. Between each experiment, sensors were regenerated using 10 mM glycine, pH 1.5. Binding curves were double-referenced against a protein-only sensor and a parallel unloaded sensor to correct for any nonspecific binding to the sensors. All curves were fit in the Octet Kinetic Analysis program (Sartorius Bio) using a 1:1 protein/ligand binding model.

CA5C-sfGFP = test: Cyclization of CA5C-sfGFP with linkers (LC-ESI-MS); settings: 100 μM linker, 3 h, 22 °C (RT), PBS pH 7.4, 1 mM TCEP
Protocol: The designed organic linkers were tested for their ability to cyclize a CA5C peptide expressed as an N-terminal fusion to sfGFP (CA5C-sfGFP). Following reduction of the protein with 1 mM TCEP for 30 min, 100 μM compounds were reacted with the reduced CA5C-sfGFP for 3 h in PBS (pH 7.4). Following the reaction, the protein was analyzed via electrospray ionization mass spectrometry (ESI-MS) analysis to determine the desired adduct and any potential side reactions that occurred. […] This is likely due to the electron withdrawing effects of the nitrogen atoms adjacent to the nitrile in the 2-cyanopyrimidine derivatives. […] Following previously established Bayesian deconvolution of the mass spectra,[23] protein masses from each reaction (MW = 28,399 Da) corresponded well with that of the expected cyclic product (MW = 28,399 Da). […] This observed mass matches a TCEP-conjugated product resulting from a previously reported competing phospha-Michael addition of TCEP to the acrylamide moiety.[24] This product has a TCEP-functionalized linker that is nonreactive toward the internal cysteine (Figure 2A,B). Following these initial studies, we then further optimized the cyclization of CA5C-sfGFP using pCAmCP and mCAmCP by varying the reaction time, temperature, and concentration of linkers (Figure 2C).
Purified CA5C-sfGFP was diluted to 500 nM in PBS (pH 7.4) containing 1 mM TCEP and left to incubate for 30 min at 37 °C. Linker (100 μM final concentration) or equivalent amounts of DMSO were then added to the solution, and it reacted at varying times (3 or 16 h) and temperatures (22 or 37 °C). All initial tests for reactivity were performed at 22 °C for 3 h, while linkers pCAmCP and mCAmCP were optimized with the additional conditions. The reaction mixtures were then concentrated and exchanged to ammonium bicarbonate (50 mM, pH 8.0) using an Amicon centrifugal filter (MWCO: 10 kDa). Samples were analyzed using a QExactive Orbitrap LC–MS System (Thermo Fisher) and deconvoluted using UniDec software.[23]

Compound	Kd [1]	reactivity with / cyclization of CA5C-sfGFP (in words) (CA5C-sfGFP)	also measured
CC(C)C[C@@H]1NC(=O)[C@H](CCCCN)NC(=O)[C@H](CCC(N)=O)NC(=O)[C@H](CCCNC(=N)N)NC(=O)[C@H](Cc2c[nH]c3ccccc23)NC(=O)[C@H](C)NC(=O)[C@H](CCC(=O)O)NC(=O)[C@H](CC(C)C)NC(=O)[C@@H]2CCCN2C(=O)[C@H](CO)NC(=O)[C@H](CC(C)C)NC(=O)[C@H](Cc2c[nH]cn2)NC(=O)[C@@H](N)CSSC[C@@H](C(N)=O)NC1=O [Peptide Z27S1Disulf] (H-CHLSPLEAWRQKLC-NH2; disulfide 1-14)	3 ± 2 µM	–	–
CC[C@H](C)[C@@H]1NC(=O)[C@H](Cc2ccccc2)NC(=O)[C@H](CCC(N)=O)NC(=O)[C@H](C)NC(=O)[C@H](C)NC(=O)[C@H](CC(N)=O)NC(=O)[C@@H]2CCCN2C(=O)[C@@H](N)CSSC[C@@H](C(N)=O)NC(=O)[C@H](C)NC(=O)[C@H](CCCNC(=N)N)NC(=O)[C@H](CO)NC(=O)[C@H](Cc2ccc(O)cc2)NC(=O)[C@H](CCCNC(=N)N)NC1=O [Peptide Z27S3Disulf] (H-CPNAAQFIRYSRAC-NH2; disulfide 1-14)	4 ± 1 µM	–	–
CC[C@H](C)[C@@H]1NC(=O)[C@H](Cc2ccccc2)NC(=O)[C@H](CCC(N)=O)NC(=O)[C@H](C)NC(=O)[C@H](C)NC(=O)[C@H](CC(N)=O)NC(=O)[C@@H]2CCCN2C(=O)[C@@H]2CSC(=N2)c2ncc(cn2)NC(=O)CSC[C@@H](C(N)=O)NC(=O)[C@H](C)NC(=O)[C@H](CCCNC(=N)N)NC(=O)[C@H](CO)NC(=O)[C@H](Cc2ccc(O)cc2)NC(=O)[C@H](CCCNC(=N)N)NC1=O [Peptide Z27S3] ({CH2CO}-[X1]PNAAQFIRYSRAC-NH2; thioether N-14)	3.5 ± 0.3 µM	–	–
C=CC(=O)Nc1ccnc(C#N)n1 [mAcCP]	–	did not result in the expected CA5C-sfGFP cyclization	–
C=CC(=O)Nc1cnc(C#N)nc1 [pAcCP]	–	did not result in the expected CA5C-sfGFP cyclization	–
C=CC(=O)Nc1cnc(C#N)cn1 [pAcCPy]	–	essentially no reactivity with the protein	–
CHLSPLEAWRQKLC (also: sidechain bridge or staple (positions not given here)) [Peptide Z27S1-mCP, Z27S1 cyclized with mCAmCP]	–	–	binding to ZNRF3 (in words) [1]: No significant dose-dependent interactions were observed; also recorded: no significant binding to ZNRF3
[Abu]PNAAQFIRYSRA[Abu] [Peptide Z27S3Abu, Abu derivative of Z27S3]	–	–	binding to ZNRF3 (in words) [1]: no binding to ZNRF3
